Measured values taken from patent US11498896B2 (The Broad Institute, Inc., priority 2014, dated 2022).

Legend:
[1] = molecular target: T1, human D2R/β-arrestin (Homo sapiens (Human), UniProt P14416); test: β-arrestin agonist assay (PathHunter); type: cell-based; settings: CHO-K1 cells expressing human D2R/β-arrestin; agonist mode
Procedure: The detection reagent (9.6 μL, Buffer:Emerald II:Galactor-Star in a 19:5:1 ratio, i.e., 14.06 mL:3.7 mL:0.74 mL=18.5 mL) was then added to the agonist plates.

[2] = molecular target: T1, human D2R/β-arrestin; test: Gi/cAMP agonist assay (Lance Ultra cAMP, forskolin); type: cell-based; settings: CHO-K1 cells expressing human D2R/β-arrestin; agonist mode, 2.5 μM forskolin
Procedure: Eu-cAMP tracer solution (10 μl, PerkinElmer, 360 μl of Tracer in 17.64 ml kit buffer) and ULight-anti-cAMP solution (10 μl, 120 μL antibody in 17.88 ml kit buffer) was then added to each well.

[3] = molecular target: T1, human D2R/β-arrestin; test: cell-based; settings: β-arrestin Antagonist, CHO-K1 cells expressing human D2R/β-arrestin; antagonist mode, quinpirole 130 nM
Procedure: Cells were prepared for assays by growing cultures for up to 2 weeks (from about 6-20 passages). A vial of frozen cells was thawed in a water bath held at 37° C. The cells were then transferred into a 50 ml tube with 10 ml growth media. The vial was rinsed with growth media and the contents transferred to the 50 ml tube. The 50 ml tube was centrifuged at 1200 rpm for 5 minutes at room temperature. […] When the cells reached about 90% confluence (approximately 3 days between passages), the cells were passaged and used for either the agonist or antagonist assays as described below.
The cells were prepared for β-arrestin assays as described above. The assays were performed using a PathHunter® β-Arrestin Detecting Kit (DiscoveRX). The cells were grown on 225 mm dishes, then washed once with 1×PBS (Cellgro), followed by digestion with 2.5 ml 1× Detachment reagent (DRX 92-0009) for approximately 2 minutes.

[4] = molecular target: T1, human D2R/β-arrestin; test: cell-based; settings: cAMP Antagonist, CHO-K1 cells expressing human D2R/β-arrestin; antagonist mode, 2.5 μM forskolin and 2.7 nM quinpirole

T1 sequence (P14416 whole entry): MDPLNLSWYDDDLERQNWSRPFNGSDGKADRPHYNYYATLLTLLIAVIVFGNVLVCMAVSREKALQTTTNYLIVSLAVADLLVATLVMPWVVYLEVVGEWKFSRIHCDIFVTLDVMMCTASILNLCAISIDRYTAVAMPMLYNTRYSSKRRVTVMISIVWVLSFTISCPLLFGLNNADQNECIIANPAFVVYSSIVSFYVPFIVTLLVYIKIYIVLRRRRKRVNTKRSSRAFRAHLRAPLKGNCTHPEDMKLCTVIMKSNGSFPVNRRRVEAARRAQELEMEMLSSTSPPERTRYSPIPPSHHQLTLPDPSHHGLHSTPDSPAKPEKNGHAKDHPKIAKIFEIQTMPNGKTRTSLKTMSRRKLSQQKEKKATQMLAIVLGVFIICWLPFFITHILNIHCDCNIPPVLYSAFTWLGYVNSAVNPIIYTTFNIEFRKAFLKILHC

SMILES: CC1(Oc2ccc(Cl)cc2)CCN(CCCCOc2ccc3ncsc3c2)C1 (stereo not drawn) [Compound 29, 6-(4-(3-(4-chlorophenoxy)-3-methylpyrrolidin-1-yl)butoxy)benzo[d]thiazole]
- EC50 [1]: > 30 µM
- EC50 [2]: > 30 µM
- IC50 [3]: 1 to 10 µM
- IC50 [4]: 1 to 10 µM

SMILES: CC1(Oc2ccc(Cl)cc2)CCN(CCOc2ccc(C(F)(F)F)nc2)C1 (stereo not drawn) [Compound 30, 5-(2-(3-(4-Chlorophenoxy)-3-methylpyrrolidin-1-yl)ethoxy)-2-(trifluoromethyl)pyridine]
- EC50 [1]: 1 to 10 µM
- EC50 [2]: 0.1 to 1 µM
- IC50 [3]: > 30 µM
- IC50 [4]: > 30 µM

SMILES: CC1(Oc2ccc(Cl)cc2)CCN(CCOc2ccc3ccccc3c2)C1 (stereo not drawn) [Compound 31, 3-(4-Chlorophenoxy)-3-methyl-1-(2-(naphthalen-2-yloxy)ethyl) pyrrolidine]
- EC50 [1]: > 30 µM
- EC50 [2]: > 30 µM
- IC50 [3]: 1 to 10 µM
- IC50 [4]: 0.1 to 1 µM

SMILES: CC1(Oc2ccc(Cl)cc2)CCN(CCOc2ccc3ncccc3c2)C1 (stereo not drawn) [Compound 32]
- EC50 [1]: > 30 µM
- EC50 [2]: 0.1 to 1 µM
- IC50 [3]: 1 to 10 µM
- IC50 [4]: > 30 µM

SMILES: CC1(Oc2ccc(Cl)cc2)CCN(CCOc2ccc3cnccc3c2)C1 (stereo not drawn) [Compound 33, 6-(2-(3-(4-chlorophenoxy)-3-methylpyrrolidin-1-yl)ethoxy)isoquinoline]
- EC50 [1]: > 30 µM
- EC50 [2]: > 30 µM
- IC50 [3]: 1 to 10 µM
- IC50 [4]: 0.1 to 1 µM

SMILES: CC1(Oc2ccc(Cl)cc2)CCN(CCOc2ccc3ccncc3c2)C1 (stereo not drawn) [Compound 34, 7-(2-(3-(4-chlorophenoxy)-3-methylpyrrolidin-1-yl)ethoxy)isoquinoline]
- EC50 [1]: 1 to 10 µM
- EC50 [2]: 0.1 to 1 µM
- IC50 [3]: > 30 µM
- IC50 [4]: > 30 µM

SMILES: CC1(Oc2ccc(Cl)cc2)CCN(CCOc2ccc(Cl)c(Cl)c2)C1 (stereo not drawn) [Compound 35, 3-(4-chlorophenoxy)-1-(2-(3,4-dichlorophenoxy)ethyl)-3-methyl pyrrolidine]
- EC50 [1]: > 30 µM
- EC50 [2]: < 0.1 µM
- IC50 [3]: 1 to 10 µM
- IC50 [4]: > 30 µM

SMILES: CC1(Oc2ccc(Cl)cc2)CCN(CCOc2cccc3ccccc23)C1 (stereo not drawn) [Compound 36, 3-(4-chlorophenoxy)-3-methyl-1-(2-(naphthalen-1-yloxy)ethyl) pyrrolidine]
- EC50 [1]: > 30 µM
- EC50 [2]: 0.1 to 1 µM
- IC50 [3]: 1 to 10 µM
- IC50 [4]: 0.1 to 1 µM

SMILES: CC1(Oc2ccc(Cl)cc2)CCN(CCOc2cccc(-c3ccccc3)c2)C1 (stereo not drawn) [Compound 37, 1-(2-([1,1′-biphenyl]-3-yloxy)ethyl)-3-(4-chlorophenoxy)-3-methylpyrrolidine]
- EC50 [1]: > 30 µM
- EC50 [2]: > 30 µM
- IC50 [3]: 1 to 10 µM
- IC50 [4]: 0.1 to 1 µM

SMILES: CC1(Oc2ccc(Cl)cc2)CCN(CCOc2ccccc2)CC1 [Compound 38, 4-(4-chlorophenoxy)-4-methyl-1-(2-phenoxyethyl)piperidine]
- EC50 [1]: 0.1 to 1 µM
- EC50 [2]: < 0.1 µM
- IC50 [3]: > 30 µM
- IC50 [4]: > 30 µM

SMILES: CC1(Oc2ccccc2)CCN(CCOc2ccccc2)C1 (stereo not drawn) [Compound 39, 3-methyl-3-phenoxy-1-(2-phenoxyethyl)pyrrolidine]
- EC50 [1]: > 30 µM
- EC50 [2]: < 0.1 µM
- IC50 [3]: 0.1 to 1 µM
- IC50 [4]: > 30 µM

SMILES: FC(F)(F)c1ccccc1OCCN1CCC2(CC1)CCN2c1ccccc1 [Compound 113, 1-phenyl-7-(2-(2-(trifluoromethyl)phenoxy)ethyl)-1,7-diazaspiro[3.5]nonane]
- EC50 [1]: > 30 µM
- EC50 [2]: > 30 µM
- IC50 [3]: 0.1 to 1 µM
- IC50 [4]: 0.1 to 1 µM

SMILES: OC1(Cc2ccccc2)CCN(CCOc2ccccc2C(F)(F)F)CC1 [Compound 114, 4-benzyl-1-(2-(2-(trifluoromethyl)phenoxy)ethyl)piperidin-4-ol]
- EC50 [1]: > 30 µM
- EC50 [2]: > 30 µM
- IC50 [3]: < 0.1 µM
- IC50 [4]: < 0.1 µM

SMILES: FC1(Cc2ccccc2)CCN(CCOc2ccccc2C(F)(F)F)CC1 [Compound 115, 4-benzyl-4-fluoro-1-(2-(2-(trifluoromethyl)phenoxy)ethyl)piperidine]
- EC50 [1]: > 30 µM
- EC50 [2]: > 30 µM
- IC50 [3]: 1 to 10 µM
- IC50 [4]: 1 to 10 µM

SMILES: CC1(Oc2ccccc2)CCN(CCC(=O)c2ccccc2C(F)(F)F)CC1 [Compound 116, 3-(4-Methyl-4-phenoxypiperidin-1-yl)-1-(2-(trifluoromethyl)phenyl) propan-1-one]
- EC50 [1]: > 30 µM
- EC50 [2]: > 30 µM
- IC50 [3]: 10 to 30 µM
- IC50 [4]: 1 to 10 µM

SMILES: CC1(Oc2ccc(Cl)cc2)CCN(CCC(C)(O)c2ccccc2C(F)(F)F)CC1 (stereo not drawn) [Compound 117, 4-(4-(4-chlorophenoxy)-4-methylpiperidin-1-yl)-2-(2-(trifluoromethyl)phenyl)butan-2-ol]
- EC50 [1]: > 30 µM
- EC50 [2]: > 30 µM
- IC50 [3]: 10 to 30 µM
- IC50 [4]: 1 to 10 µM

SMILES: CC1(Oc2ccccc2)CCN(CCCc2ccccc2C(F)(F)F)CC1 [Compound 118, 4-Methyl-4-phenoxy-1-(3-(2-(trifluoromethyl)phenyl)propyl)piperidine]
- EC50 [1]: > 30 µM
- EC50 [2]: < 0.1 µM
- IC50 [3]: 0.1 to 1 µM
- IC50 [4]: 0.1 to 1 µM

SMILES: CC1(C)OC(c2ccccc2)C2(CCN(CCOc3ccccc3C(F)(F)F)CC2)O1 (stereo not drawn) [Compound 119]
- EC50 [1]: > 30 µM
- EC50 [2]: > 30 µM
- IC50 [3]: 1 to 10 µM
- IC50 [4]: 1 to 10 µM

SMILES: CC1(Oc2ccc(Cl)cc2)CCN(CCCCOc2ccccc2)CC1 [Compound 120, 4-(4-chlorophenoxy)-4-methyl-1-(4-phenoxybutyl)piperidine]
- EC50 [1]: > 30 µM
- EC50 [2]: 1 to 10 µM
- IC50 [3]: 10 to 30 µM
- IC50 [4]: > 30 µM

SMILES: CC1(Oc2ccccc2)CCN(CCCCOc2ccccc2)CC1 [Compound 121, 4-Methyl-4-phenoxy-1-(4-phenoxybutyl)piperidine]
- EC50 [1]: 0.1 to 1 µM
- EC50 [2]: < 0.1 µM
- IC50 [3]: 1 to 10 µM
- IC50 [4]: > 30 µM

SMILES: CC1(O)CCN(CCOc2ccccc2C(F)(F)F)CC1 [Compound 124, 4-Methyl-1-(2-(2-(trifluoromethyl)phenoxy)ethyl)piperidin-4-ol]
- EC50 [1]: > 30 µM
- EC50 [2]: > 30 µM
- IC50 [3]: 0.1 to 1 µM
- IC50 [4]: < 0.1 µM

SMILES: CC1(OCc2ccccc2)CCN(CCOc2ccccc2C(F)(F)F)CC1 [Compound 126, 4-(Benzyloxy)-4-methyl-1-(2-(2-(trifluoromethyl)phenoxy)ethyl) piperidine]
- EC50 [1]: > 30 µM
- EC50 [2]: > 30 µM
- IC50 [3]: < 0.1 µM
- IC50 [4]: < 0.1 µM

SMILES: CC1(Oc2ccc(Cl)cc2)CCN(CCOc2ccc3ncoc3c2)CC1 [Compound 127, 6-(2-(4-(4-chlorophenoxy)-4-methylpiperidin-1-yl)ethoxy)benzo[d] oxazole]
- EC50 [1]: 0.1 to 1 µM
- EC50 [2]: < 0.1 µM
- IC50 [3]: 1 to 10 µM
- IC50 [4]: > 30 µM

SMILES: CC1(Oc2ccc(Cl)cc2)CCN(CCOc2cnccc2C(F)(F)F)CC1 [Compound 128, 3-(2-(4-(4-chlorophenoxy)-4-methylpiperidin-1-yl)ethoxy)-4-(trifluoromethyl)pyridine]
- EC50 [1]: > 30 µM
- EC50 [2]: 1 to 10 µM
- IC50 [3]: 1 to 10 µM
- IC50 [4]: 0.1 to 1 µM

SMILES: CC1(Oc2ccc(Cl)cc2)CCN(CC(=O)Nc2ccccc2C(F)(F)F)CC1 [Compound 129, 2-(4-(4-chlorophenoxy)-4-methylpiperidin-1-yl)-N-(2-(trifluoromethyl)phenyl)acetamide]
- EC50 [1]: > 30 µM
- EC50 [2]: > 30 µM
- IC50 [3]: > 30 µM
- IC50 [4]: > 30 µM

SMILES: CC1(O)CCN(CCOc2ccccc2)CC1 [Compound 130, 4-Methyl-1-(2-phenoxyethyl)piperidin-4-ol]
- EC50 [1]: 1 to 10 µM
- EC50 [2]: 0.1 to 1 µM
- IC50 [3]: 10 to 30 µM
- IC50 [4]: > 30 µM

SMILES: CC1(O)CCN(CCOc2ccccc2F)CC1 [Compound 131, 1-(2-(2-fluorophenoxy)ethyl)-4-methylpiperidin-4-ol]
- EC50 [1]: 0.1 to 1 µM
- EC50 [2]: < 0.1 µM
- IC50 [3]: 1 to 10 µM
- IC50 [4]: > 30 µM

SMILES: CC1(O)CCN(CCOc2ccc(C(F)(F)F)cc2)CC1 [Compound 132, 4-methyl-1-(2-(4-(trifluoromethyl)phenoxy)ethyl)piperidin-4-ol]
- EC50 [1]: > 30 µM
- EC50 [2]: > 30 µM
- IC50 [3]: 10 to 30 µM
- IC50 [4]: 1 to 10 µM

SMILES: C[C@]1(O)C[C@H]2CC[C@@H](C1)N2CCOc1ccccc1C(F)(F)F [Compound 133, 3-methyl-8-(2-(2-(trifluoromethyl)phenoxy)ethyl)-8-azabicyclo[3.2.1] octan-3-ol]
- EC50 [1]: > 30 µM
- EC50 [2]: > 30 µM
- IC50 [3]: 0.1 to 1 µM
- IC50 [4]: 0.1 to 1 µM

SMILES: CC1(O)CCCN(CCOc2ccccc2C(F)(F)F)C1 (stereo not drawn) [Compound 134, 3-Methyl-1-(2-(2-(trifluoromethyl)phenoxy)ethyl)piperidin-3-ol]
- EC50 [1]: > 30 µM
- EC50 [2]: > 30 µM
- IC50 [3]: 10 to 30 µM
- IC50 [4]: 1 to 10 µM

SMILES: FC(F)(F)c1ccccc1OCCN1CCC2(CC1)CCN2c1ccc(Cl)cc1 [Compound 136, 1-(4-Chlorophenyl)-7-(2-(2-(trifluoromethyl)phenoxy)ethyl)-1,7-diazaspiro[3.5]nonane]
- EC50 [1]: > 30 µM
- EC50 [2]: > 30 µM
- IC50 [3]: 0.1 to 1 µM
- IC50 [4]: < 0.1 µM

SMILES: CC1(O)CCN(CCCOc2ccccc2C(F)(F)F)CC1 [Compound 138, 4-methyl-1-(3-(2-(trifluoromethyl)phenoxy)propyl)piperidin-4-ol]
- EC50 [1]: > 30 µM
- EC50 [2]: > 30 µM
- IC50 [3]: 0.1 to 1 µM
- IC50 [4]: 0.1 to 1 µM

SMILES: CC1(O)CCN(CCOc2ccccc2C(F)(F)F)C1 (stereo not drawn) [Compound 139, 3-Methyl-1-(2-(2-(trifluoromethyl)phenoxy)ethyl)pyrrolidin-3-ol]
- EC50 [1]: > 30 µM
- EC50 [2]: > 30 µM
- IC50 [3]: 1 to 10 µM
- IC50 [4]: 1 to 10 µM
